Calls of active or inactive are those of the source. The calls are words filed in the database; no cut-off is given here.
Legend:
Mus musculus [1] = test: Anorectic activity in C57BL/6J mouse assessed as inhibition of food intake at 0.03 mg/kg/day, sc for 3 days dosed as continuous administration by infusion using osmotic pump; format: functional; settings: 72 h
[2] = MRT in C57BL/6J mouse at 1 mg/kg, sc measured during 5 mins to 24 hrs by LC/MS/MS method; format: ADME, organism-based; settings: in vivo
[3] = target: T1, Neuropeptide Y receptor type 1 (Homo sapiens, UniProt P25929); test: Agonist activity at human neuropeptide Y1 receptor by [35S]GTPgammaS binding assay; format: functional
T1 sequence (P25929 whole entry): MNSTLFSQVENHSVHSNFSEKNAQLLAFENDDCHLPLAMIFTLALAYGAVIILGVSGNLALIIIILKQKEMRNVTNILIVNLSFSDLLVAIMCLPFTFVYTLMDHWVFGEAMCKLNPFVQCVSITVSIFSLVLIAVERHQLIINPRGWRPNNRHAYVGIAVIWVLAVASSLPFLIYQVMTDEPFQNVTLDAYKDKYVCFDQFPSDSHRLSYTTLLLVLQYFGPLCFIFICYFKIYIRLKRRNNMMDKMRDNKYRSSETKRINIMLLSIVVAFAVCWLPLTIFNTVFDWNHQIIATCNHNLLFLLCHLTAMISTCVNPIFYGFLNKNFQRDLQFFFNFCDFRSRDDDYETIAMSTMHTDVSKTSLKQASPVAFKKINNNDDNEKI

Mus musculus [4] = test: Anorectic activity in DIO C57BL/6J mouse assessed as reduction in cumulative food intake at 0.03 mg/kg, sc for 2 weeks dosed as continuous administration by infusion of osmotic pumps relative to untreated control; format: functional, organism-based
Mus musculus [5] = test: Anorectic activity in DIO C57BL/6J mouse assessed as reduction in cumulative food intake at 0.03 mg/kg, sc for 2 weeks dosed as continuous administration by infusion of osmotic pumps relative to 0.3 mg/kg/day, sc PYY(3-36); format: functional

Compound: CC[C@](C)(NC(=O)[C@H]1C[C@H](O)CN1C(=O)[C@H](CO)NC(=O)c1c[nH]cn1)C(=O)N[C@@H](Cc1ccncc1)C(=O)N[C@@H](CC1CCCCC1)C(=O)N[C@@H](CC(C)(C)C)C(=O)N[C@@H](CC(N)=O)C(=O)N[C@@H](CCCCN)C(=O)NC(C)(C)C(=O)N[C@H](C(=O)N[C@@H](CCCNC(=N)N)C(=O)N[C@@H](CCC(N)=O)C(=O)N[C@@H](CCCNC(=N)N)C(=O)N[C@@H](CC1CCCCC1)C(N)=O)[C@@H](C)O
- inhibition in vivo at 0.03 mg/kg/day (Mus musculus [1]): 52%
- MRT [2]: 33.6 min
- EC50 [3]: > 1000 nM
- Activity (Mus musculus [4]): Active
- fold change (FC) (Mus musculus [5]): 30
